Experimental data published in ChEMBL document CHEMBL4184209, “Identification and initial optimization of inhibitors of Clostridium difficile (C. difficile) toxin B (TcdB)” (Bioorg Med Chem Lett, 2018).
The source made the active and inactive calls.

Experiments:
Toxin B [1] = biological target: T1, Toxin B (Clostridioides difficile, UniProt P18177); assay: Inhibition of C-terminal 6-His tagged recombinant Clostridium difficile toxin B catalytic fragment (Met1 to Leu543 residues) assessed as reduction in glucosyltransferase domain UDP-glucose hydrolysis activity using UDP-glucose and ADP Alexa633 tracer incubated fore 3 hrs by fluorescence polarization assay
Toxin B [2] = biological target: T1, Toxin B; assay: Inhibition of Clostridium difficile toxin B […] assessed as reduction in caspase 3/7 activation pre-incubated for 1 hr before TcdB addition by luminescence based assay1; assay type: cell-based
Toxin A = Toxin A (Clostridioides difficile, UniProt P16154); assay: Inhibition of Clostridium difficile toxin A […] assessed as reduction in caspase 3/7 activation pre-incubated for 1 hr before TcdA addition by luminescence based assay1; assay type: cell-based
[3] = Stability in human liver microsomes assessed as parent compound remaining level incubated for 15 mins; assay type: ADME, microsome; details: read-out: Stability
[4] = Stability in mouse liver microsomes assessed as parent compound remaining level incubated for 15 mins; assay type: ADME, microsome; details: read-out: Stability
Clostridioides difficile = assay: Effect on growth of Clostridium difficile at 0.5 to 100 uM incubated for 24 hrs under anaerobic conditions by spectrophotometry; assay type: functional, organism-based
[5] = system: Limosilactobacillus reuteri; assay: Effect on growth of Lactobacillus reuteri at 0.5 to 100 uM incubated for 24 hrs under anaerobic conditions by spectrophotometry; assay type: organism-based
Bifidobacterium longum = assay: Effect on growth of Bifidobacterium longum at 0.5 to 100 uM incubated for 24 hrs under anaerobic conditions by spectrophotometry; assay type: organism-based
Bacteroides fragilis = assay: Effect on growth of Bacteroides fragilis at 0.5 to 100 uM incubated for 48 hrs under anaerobic conditions by spectrophotometry; assay type: organism-based
[6] = AUC (0 to 24 hrs) in CD1 mouse at 1 mg/kg, iv; assay type: ADME, organism-based; parameters: dose 1 mg/kg, time < 24 hr, route intravenous; details: in vivo
[7] = AUC (0 to 24 hrs) in CD1 mouse at 10 mg/kg, po; assay type: ADME, organism-based; parameters: dose 10 mg/kg, time < 24 hr, route oral; details: in vivo
[8] = Cmax in CD1 mouse at 1 mg/kg, iv; assay type: ADME, organism-based; parameters: dose 1 mg/kg, route intravenous; details: in vivo
[9] = Cmax in CD1 mouse at 10 mg/kg, po; assay type: ADME, organism-based; parameters: dose 10 mg/kg, route oral; details: in vivo
[10] = Tmax in CD1 mouse at 10 mg/kg, po; assay type: ADME, organism-based; details: in vivo
[11] = Stability in mouse plasma assessed as parent compound remaining measured after 15 mins post dose; assay type: ADME, cell-free; details: read-out: Stability
[12] = Stability in mouse plasma assessed as parent compound remaining measured after 2 hrs post dose; assay type: ADME, cell-free
[13] = Clearance in CD1 mouse at 1 mg/kg, iv; assay type: ADME, organism-based; details: in vivo
[14] = Elimination half life in CD1 mouse at 1 mg/kg, iv; assay type: ADME, organism-based; details: in vivo, read-out: beta t1/2 (converted)
[15] = Apparent volume of distribution in CD1 mouse at 1 mg/kg, iv; assay type: ADME, organism-based; details: in vivo, read-out: Vz
[16] = Stability in mouse plasma assessed as parent compound remaining measured during 0 to 120 mins post dose; assay type: ADME, cell-free

Sequence of Toxin A (P16154 whole entry): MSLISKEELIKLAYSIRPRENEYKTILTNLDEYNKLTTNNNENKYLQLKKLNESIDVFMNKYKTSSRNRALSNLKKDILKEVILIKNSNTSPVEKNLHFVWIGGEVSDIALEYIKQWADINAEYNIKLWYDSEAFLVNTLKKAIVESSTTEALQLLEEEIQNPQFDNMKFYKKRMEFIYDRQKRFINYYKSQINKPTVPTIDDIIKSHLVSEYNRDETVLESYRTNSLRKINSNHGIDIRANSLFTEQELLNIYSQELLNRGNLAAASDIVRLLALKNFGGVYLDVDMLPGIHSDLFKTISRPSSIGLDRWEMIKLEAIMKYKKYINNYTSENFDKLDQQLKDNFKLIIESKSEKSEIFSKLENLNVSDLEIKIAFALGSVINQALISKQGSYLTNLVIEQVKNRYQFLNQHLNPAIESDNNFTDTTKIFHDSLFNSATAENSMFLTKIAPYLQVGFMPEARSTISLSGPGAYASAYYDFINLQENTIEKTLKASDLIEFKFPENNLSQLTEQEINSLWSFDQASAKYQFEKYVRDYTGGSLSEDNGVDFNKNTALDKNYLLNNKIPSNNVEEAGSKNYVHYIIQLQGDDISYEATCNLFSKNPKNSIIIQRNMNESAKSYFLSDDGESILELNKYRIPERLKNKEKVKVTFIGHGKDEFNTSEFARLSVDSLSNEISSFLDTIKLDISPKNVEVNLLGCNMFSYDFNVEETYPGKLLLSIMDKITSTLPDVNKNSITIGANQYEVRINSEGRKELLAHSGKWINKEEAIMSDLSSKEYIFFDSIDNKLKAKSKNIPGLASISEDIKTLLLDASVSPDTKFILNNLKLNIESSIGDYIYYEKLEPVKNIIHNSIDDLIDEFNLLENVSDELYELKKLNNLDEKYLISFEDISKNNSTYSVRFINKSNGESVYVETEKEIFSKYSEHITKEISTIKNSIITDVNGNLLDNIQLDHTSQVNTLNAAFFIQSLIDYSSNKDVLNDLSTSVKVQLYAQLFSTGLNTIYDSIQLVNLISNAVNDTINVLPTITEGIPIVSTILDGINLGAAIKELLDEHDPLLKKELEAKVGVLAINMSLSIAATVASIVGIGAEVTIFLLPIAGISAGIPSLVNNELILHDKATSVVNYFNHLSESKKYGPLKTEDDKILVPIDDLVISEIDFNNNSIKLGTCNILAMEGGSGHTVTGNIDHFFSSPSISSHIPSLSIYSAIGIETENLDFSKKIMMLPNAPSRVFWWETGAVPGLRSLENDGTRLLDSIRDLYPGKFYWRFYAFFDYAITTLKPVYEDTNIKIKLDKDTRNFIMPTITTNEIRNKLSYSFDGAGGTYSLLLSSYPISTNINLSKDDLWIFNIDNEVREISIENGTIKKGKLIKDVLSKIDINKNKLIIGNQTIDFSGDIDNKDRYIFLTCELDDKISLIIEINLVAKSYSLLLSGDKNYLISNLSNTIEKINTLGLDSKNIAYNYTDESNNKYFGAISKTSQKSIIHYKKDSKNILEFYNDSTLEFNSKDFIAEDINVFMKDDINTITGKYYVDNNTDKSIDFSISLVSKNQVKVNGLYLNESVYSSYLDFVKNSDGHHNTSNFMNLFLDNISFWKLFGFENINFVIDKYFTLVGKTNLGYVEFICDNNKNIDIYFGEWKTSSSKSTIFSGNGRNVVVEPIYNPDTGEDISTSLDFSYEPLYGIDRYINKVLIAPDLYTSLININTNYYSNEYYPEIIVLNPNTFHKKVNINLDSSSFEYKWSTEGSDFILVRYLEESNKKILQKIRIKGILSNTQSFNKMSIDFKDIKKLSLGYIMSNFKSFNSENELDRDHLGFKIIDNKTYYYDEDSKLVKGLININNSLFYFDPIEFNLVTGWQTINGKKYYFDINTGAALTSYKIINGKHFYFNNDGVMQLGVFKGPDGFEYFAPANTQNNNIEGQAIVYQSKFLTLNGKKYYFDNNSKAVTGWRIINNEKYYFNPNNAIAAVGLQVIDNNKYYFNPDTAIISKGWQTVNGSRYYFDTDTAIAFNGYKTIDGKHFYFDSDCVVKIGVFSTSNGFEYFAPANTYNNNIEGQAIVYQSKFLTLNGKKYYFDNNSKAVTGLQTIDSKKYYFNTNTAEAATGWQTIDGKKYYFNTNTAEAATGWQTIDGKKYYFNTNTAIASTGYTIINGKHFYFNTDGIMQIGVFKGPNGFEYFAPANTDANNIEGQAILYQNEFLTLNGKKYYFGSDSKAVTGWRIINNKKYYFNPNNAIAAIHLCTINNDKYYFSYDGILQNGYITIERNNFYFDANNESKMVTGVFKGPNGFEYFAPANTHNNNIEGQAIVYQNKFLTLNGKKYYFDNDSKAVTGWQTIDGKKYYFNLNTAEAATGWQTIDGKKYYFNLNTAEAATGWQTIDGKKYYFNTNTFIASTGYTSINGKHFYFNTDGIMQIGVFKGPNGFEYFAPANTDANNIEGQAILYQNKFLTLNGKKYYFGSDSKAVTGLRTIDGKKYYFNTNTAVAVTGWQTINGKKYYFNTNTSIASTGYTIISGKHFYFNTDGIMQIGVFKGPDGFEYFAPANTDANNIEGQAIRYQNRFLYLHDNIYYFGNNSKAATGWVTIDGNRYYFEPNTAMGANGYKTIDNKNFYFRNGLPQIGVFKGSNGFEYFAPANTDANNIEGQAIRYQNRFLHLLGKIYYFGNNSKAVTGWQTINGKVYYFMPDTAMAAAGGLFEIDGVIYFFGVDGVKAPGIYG
T1 sequence (P18177 whole entry, the tested form may be a part): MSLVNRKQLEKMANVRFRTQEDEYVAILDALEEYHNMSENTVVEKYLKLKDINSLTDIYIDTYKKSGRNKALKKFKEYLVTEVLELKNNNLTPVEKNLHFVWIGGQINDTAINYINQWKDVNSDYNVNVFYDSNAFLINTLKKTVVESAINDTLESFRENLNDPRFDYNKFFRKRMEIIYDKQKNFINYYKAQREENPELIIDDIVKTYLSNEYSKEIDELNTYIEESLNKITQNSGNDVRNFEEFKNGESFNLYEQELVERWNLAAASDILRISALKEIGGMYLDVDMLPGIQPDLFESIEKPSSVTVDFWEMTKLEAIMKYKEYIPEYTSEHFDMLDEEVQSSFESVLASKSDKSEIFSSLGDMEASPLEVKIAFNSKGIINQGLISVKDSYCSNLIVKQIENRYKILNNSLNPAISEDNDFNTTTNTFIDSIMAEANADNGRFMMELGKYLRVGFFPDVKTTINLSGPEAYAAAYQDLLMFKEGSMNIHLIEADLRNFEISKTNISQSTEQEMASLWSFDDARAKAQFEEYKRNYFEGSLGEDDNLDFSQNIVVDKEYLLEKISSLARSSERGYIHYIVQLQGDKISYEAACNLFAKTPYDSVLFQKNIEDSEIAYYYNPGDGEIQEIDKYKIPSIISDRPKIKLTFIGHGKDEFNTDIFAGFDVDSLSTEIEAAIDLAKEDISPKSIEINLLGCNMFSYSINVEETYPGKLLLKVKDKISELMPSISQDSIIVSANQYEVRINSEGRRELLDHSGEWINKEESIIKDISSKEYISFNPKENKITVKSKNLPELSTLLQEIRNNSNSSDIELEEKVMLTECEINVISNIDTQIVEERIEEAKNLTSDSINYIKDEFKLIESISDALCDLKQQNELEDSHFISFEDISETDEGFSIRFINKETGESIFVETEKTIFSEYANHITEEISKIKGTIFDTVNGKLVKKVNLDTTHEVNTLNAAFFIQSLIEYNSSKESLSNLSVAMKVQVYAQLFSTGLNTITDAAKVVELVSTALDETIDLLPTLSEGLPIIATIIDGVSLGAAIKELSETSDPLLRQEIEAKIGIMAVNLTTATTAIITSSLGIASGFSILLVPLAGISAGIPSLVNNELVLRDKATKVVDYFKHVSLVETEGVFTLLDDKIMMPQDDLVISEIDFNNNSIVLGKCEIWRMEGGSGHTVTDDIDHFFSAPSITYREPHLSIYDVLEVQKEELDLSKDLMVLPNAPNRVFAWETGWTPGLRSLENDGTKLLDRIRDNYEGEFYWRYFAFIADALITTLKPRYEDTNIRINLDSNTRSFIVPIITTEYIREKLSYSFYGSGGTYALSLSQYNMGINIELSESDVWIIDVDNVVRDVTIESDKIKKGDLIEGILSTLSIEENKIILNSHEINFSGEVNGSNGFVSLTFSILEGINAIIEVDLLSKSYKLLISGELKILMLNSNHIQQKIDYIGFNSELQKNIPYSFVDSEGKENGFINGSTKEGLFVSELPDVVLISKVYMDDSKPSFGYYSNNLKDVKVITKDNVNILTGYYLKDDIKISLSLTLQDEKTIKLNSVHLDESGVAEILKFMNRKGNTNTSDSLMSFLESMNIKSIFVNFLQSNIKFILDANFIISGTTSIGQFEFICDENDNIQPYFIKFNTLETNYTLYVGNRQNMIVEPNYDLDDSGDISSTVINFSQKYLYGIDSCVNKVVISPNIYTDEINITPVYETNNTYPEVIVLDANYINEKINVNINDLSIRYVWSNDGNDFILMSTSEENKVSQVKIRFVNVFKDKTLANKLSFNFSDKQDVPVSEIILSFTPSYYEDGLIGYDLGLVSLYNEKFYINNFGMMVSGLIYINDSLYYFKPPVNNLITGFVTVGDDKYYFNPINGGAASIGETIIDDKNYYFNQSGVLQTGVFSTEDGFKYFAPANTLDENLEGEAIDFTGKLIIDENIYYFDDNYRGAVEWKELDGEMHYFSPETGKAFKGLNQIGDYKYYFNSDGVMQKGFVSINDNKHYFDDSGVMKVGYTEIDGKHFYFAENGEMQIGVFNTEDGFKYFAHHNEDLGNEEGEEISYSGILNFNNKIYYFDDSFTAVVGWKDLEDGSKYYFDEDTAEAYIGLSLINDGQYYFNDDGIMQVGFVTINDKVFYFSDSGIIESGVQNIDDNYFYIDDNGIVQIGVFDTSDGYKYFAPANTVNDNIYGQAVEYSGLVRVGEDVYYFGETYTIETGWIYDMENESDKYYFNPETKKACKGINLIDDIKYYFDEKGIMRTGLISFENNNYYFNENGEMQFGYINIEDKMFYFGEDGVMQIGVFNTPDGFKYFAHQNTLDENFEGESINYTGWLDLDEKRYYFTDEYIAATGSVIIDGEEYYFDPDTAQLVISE

SMILES	IC50 (Toxin B [1])	IC50 (Toxin B [2])	IC50 (Toxin A)	remaining at 0.25 h [3]	remaining at 0.25 h [4]	Activity (Clostridioides difficile)	Activity [5]	Activity (Bifidobacterium longum)	Activity (Bacteroides fragilis)	AUC(0-t) at 24 h [6]	AUC(0-t) at 24 h [7]	Cmax [8]	Cmax [9]	Tmax [10]	remaining at 0.25 h [11]	Stability [12]	clearance [13]	half-life [14]	Vd [15]	Stability [16]
COc1cnc(NC(=O)c2ccc(CN3C(=O)c4ccc(Cl)cc4NC(=O)[C@H]3Cc3ccccn3)cc2)nc1	7 nM	0.52 µM	2600 nM	90%	77%	inactive	Non-Toxic	Non-Toxic	Non-Toxic	2 ng·h/mL	181 ng·h/mL	2 ng/mL	27 ng/mL	30 min	50%	Unstable	–	–	–	–
Cc1ccc(NC(=O)c2ccc(CN3C(=O)c4ccc(Cl)cc4NC(=O)[C@H]3Cc3ccccn3)cc2)nc1	1 nM	0.17 µM	3200 nM	63%	43%	inactive	Non-Toxic	Non-Toxic	Non-Toxic	200 ng·h/mL	1070 ng·h/mL	1030 ng/mL	2690 ng/mL	15 min	–	–	76 mL/min/kg	60 min	6.9 L/kg	Unstable
O=C(Nc1ccccn1)c1ccc(CN2C(=O)c3ccc(Cl)cc3NC(=O)[C@H]2Cc2cccnc2)cc1	9 nM	4.5 µM	–	97%	57%	inactive	Non-Toxic	Non-Toxic	Non-Toxic	–	–	–	–	–	–	–	–	–	–	–
O=C(Nc1nccs1)c1ccc(CN2C(=O)c3ccc(Cl)cc3NC(=O)[C@H]2Cc2cccnc2)cc1	42 nM	20 µM	–	61%	67%	inactive	Non-Toxic	Non-Toxic	Non-Toxic	–	–	–	–	–	–	–	–	–	–	–
COc1ccc(NC(=O)c2ccc(CN3C(=O)c4ccc(Cl)cc4NC(=O)[C@H]3Cc3ccccn3)cc2)nc1	3 nM	0.043 µM	1100 nM	81%	61%	inactive	Non-Toxic	Non-Toxic	Non-Toxic	–	–	–	–	–	–	–	–	–	–	–
O=C(Nc1cnccn1)c1ccc(CN2C(=O)c3ccc(Cl)cc3NC(=O)[C@H]2Cc2cccnc2)cc1	78 nM	13 µM	–	92%	98%	inactive	Non-Toxic	Non-Toxic	Non-Toxic	–	–	–	–	–	–	–	–	–	–	–
Cc1cc(NC(=O)c2ccc(CN3C(=O)c4ccc(Cl)cc4NC(=O)[C@H]3Cc3cccnc3)cc2)no1	50 nM	19 µM	–	100%	31%	inactive	Non-Toxic	Non-Toxic	Non-Toxic	–	–	–	–	–	–	–	–	–	–	–
